From patent US20200230205A1, “COMPOSITIONS AND METHODS FOR TREATING MYELIN DISORDERS” (CASE WESTERN RESERVE UNIVERSITY, priority 2017, published 2020)

Tests used:
[1] = test system: aggrecan (CS56); test: CSPG degradation by OPC conditioned media (CS56 spot quantification and western blot of aggrecan); format: cell-based, mouse; details: for aggrecan GAG digestion (CS56 immunoblot): Exo1 10 μg/mL, GM6001 25 μM or OA-Hy 100 nM with 2.5 μM ISP
Description: (§1) CSPG gradients were prepared as described previously (Tom, V. J., et al. Studies on the Development and Behavior of the Dystrophic Growth Cone, the Hallmark of Regeneration Failure, in an In vitro Model of the Glial Scar and after Spinal Cord Injury.). 24-well glass coverslip were coated with poly-L-lysine and nitrocellulose, and a mixture of 700 μg/mL aggrecan (A1960 Sigma) and 10 μg/mL laminin (11243217001 Sigma) spotted on the coated coverslip. After drying, coated coverslips were then incubated with laminin at 37° C. for 3h. Purified OPCs were plated at a density of 10,000/coverslip and cultured in DMEM/F12 medium containing with N2, PDGF (20 ng/ml), FGF (20 ng/ml), NT-3 (5 ng/ml), CNTF (O1 ng/ml), Glutamine (200 mM). Coverslips were stained with CS-56 (C8035, Sigma, 1:500) and O4 antibodies (Hybridoma Core Cleveland Clinic, 1:10). O4-positive cells crossing the aggrecan border were counted for each spot. For CSPG gradient quantification, 1×10^6 OPCs were plated per well on PLL, 1 μg/mL laminin, and 2 μg/mL aggrecan coated 6-well plates. OPCs treated with vehicle, 2.5 μM ISP, or 2.5 μM SISP for 2 days at 37° C. CM was harvested and incubated with freshly made spots. Spots were incubated with CM for 2 days at 37° C. then stained with CS-56 and laminin (L9393, Sigma, 1:1000) antibodies and consistently imaged. Using ImageJ software (NIH), pixel intensities of the CS-56 or laminin spot rims were quantified using the same ROI. For cultured spinal cord explant, the spinal cords of cervical and thoracic of P1 mouse pups were chopped into 1-2 mm tissue pieces and transferred to the coverslip. Explants were cultured in DMEM/F12 medium with 15% FBS (Hyclone), O1 ng/ml PDGF (Sigma) and N2 supplement (Invitrogen). For ISP treatment, 2.5 uM ISP was added to the media at the time of plating. 25 μM GM6001 (2983, Tocris), 100 nM MMP-2 inhibitor (444244, Calbiochem), and/or 2.5 μM ISP or SISP was used.
CM was harvested from 1×10^6 OPCs incubated on PLL, 1 μg/mL laminin, and 2 μg/mL aggrecan coated 6-well plates. OPCs were treated with vehicle, 2.5 μM ISP, or 2.5 μM SISP in conjunction with 10 μg/mL Exo1 (ab120292, Abcam), or 25 μM GM6001 (364205, Calbiochem) for 2 days at 37° C. […] CM of each cell-strained group was incubated with 20 μg/mL aggrecan and/or 10 μg/mL laminin for 2 hours in lmL Eppendorf tubes at 37° C. As a positive control, OPC media was incubated with aggrecan and incubated in the same fashion. Western blots were then performed as described below with incubation against CS-56 and/or laminin antibodies.

[2] = test system: oligodendrocyte progenitor cells (OPCs); test: CSPG gradient crossing (spot) assay, OPC migration; format: cell-based, mouse; details: 25 μM GM6001 or 100 nM OA-Hy, even in the presence of ISP
Description: as §1

[3] = test system: organotypic cerebellar slice cultures; test: LPC-induced demyelination in mouse cerebellar slice cultures; format: cell-based; details: 25 μM GM6001 or 100 nM OA-Hy in conjunction with 2.5 μM ISP, 9 days
Description: We carried out the cerebellar slice culture method as described previously (Zhang, H., et al. Central nervous system remyelination in culture—A tool for multiple sclerosis research. Experimental Neurology 230, 138-148 (2011)). Briefly, 300 μm-thick cerebellar slices were cut from P10-12 mouse cerebellum using a Leica vibrating microtome (Leica, VT1000S) and cultured in medium containing 50% basal medium eagle medium, 25% Heat-inactivated horse serum, 25% Hank's solution, 2.5% glucose, 1% glutamine and penicillin-streptomycin. After 4 days in vitro (DIV), 0.5 mg/ml LPC were added for 17-18h to induce demyelination. Slices were then incubated with 2.5 μM ISP for 8 days. For GM6001 experiments, 25 μM GM6001 (Tocris) and/or 2.5 μM ISP or SISP was incubated for 9 days. Remyelination was examined by semi-quantitative Western blot of MBP and immunofluorescence stain of MBP and NeuF200.
Slices were fixed with 4% PFA, delipidated, and washed three times in PBS, blocked in PBS containing 0.1% Triton X-100 and 5% normal goat serum and incubated with anti-MBP (SMI-99P, Covance, 1:300), and anti-NeuF200 (N4142, Sigma, 1:250) antibodies overnight at 4° C. The slices were then washed in PBS and incubated in Alexa Fluor-conjugated secondary antibodies (1:500, invitrogen) for 2h. Slices were mounted in Vectashield mounting medium with DAPI (Vector Laboratories) and analyzed using Leica DFC500 fluorescence microscope.

[4] = test system: oligodendrocyte progenitor cells (OPCs); test: Ki-67 proliferation and TUNEL apoptosis of OPCs on aggrecan/laminin; format: cell-based, mouse; details: 2.5 μM peptide, 2 div, laminin 1 and aggrecan 2 μg/mL, vs control
Description: To assess proliferation, OPCs were plated on 24-well coverslips that were precoated with PLL, 1 μg/mL laminin, and 2 μg/mL aggrecan. OPCs were treated with vehicle, 2.5 μM ISP or SISP immediately upon plating for 2 days at 37° C. Coverslips were fixed and stained using the same method described in the immunocytochemistry section with Ki-67 (550609, BD Pharmingen, 1:500) and O4 (1:10). Coverslips were imaged and counted. To assess apoptosis, OPCs were cultured in the same fashion and incubated with vehicle or 1 μg/mL LPC for 2 hours at 2 days following vehicle, 2.5 μM ISP or SISP incubation. Coverslips were then fixed with PFA and methanol then stained using APO-BrdU TUNEL assay kit (A23210, ThermoFisher) and guidelines with an O/N incubation of the primary antibody at RT. Coverslips were additionally costained with DAPI (D9542, Sigma, 1:10,000) then imaged and counted.

[5] = test system: MMP-10; test: MMP-10 western blot of OPC conditioned media; format: cell-based, mouse; details: OPC CM, 2.5 μM peptide, same as vehicle
Description: To assess MMP-2 or 10 in OPC CM or lysates, OPCs were incubated on precoated PLL, aggrecan, and laminin as described above. OPCs were treated with vehicle, 2.5 μM ISP or SISP for 2 days at 37° C. CM was then harvested and concentrated using Milipore Ultracel YM-C centrifugal filter units at max speed (Eppendorf Centrifuge […]) for 30 minutes at 4° C. […] of concentrated CM was loaded into each lane. OPC lysates were assessed using western blot techniques described below with […] protein loaded from each group. Tissue samples or cerebellar slices or purified OPC cells were homogenized with RIPA lysis buffer and protein concentration was determined by Pierce BCA protein assay kit according to the manufacture instruction (Thermo Fisher). Then, equal amounts of protein were loaded to 15% SDS-PAGE gels, and electrophoretically transferred to PVDF membranes (Millipore). The membranes were blocked in 0.1% TPBS buffer with 5% non-fat milk for 1h at room temperature and probed with indicated primary antibodies overnight at 4° C. and followed by secondary antibody conjugated to horseradish peroxidase (HRP). […] Enhanced chemiluminescence was performed with a West Pico Kit (Thermo Fisher) and detected by FluorChem E system (ProteinSimple, USA). The density of bands was quantified using ImageJ software (NIH).

Molecule | aggrecan GAG digestion (CS56 immunoblot) [1] | OPC entry into the CSPG-rich area [2] | colocalization of MBP and neurofilament+ axons [3] | CS56 spot degradation ([1]; 25 μM GM6001 or 100 nM OA-Hy with 2.5 μM ISP) | OPC proliferation (Ki67) [4] | MMP-10 secretion, western blot [5]
COC(=O)c1ccccc1NC(=O)c1ccc(F)cc1 [Exo1] | partially rescued aggrecan GAG digestion |  |  |  |  | 
CNC(=O)[C@H](Cc1c[nH]c2ccccc12)NC(=O)[C@@H](CC(=O)NO)CC(C)C [GM6001] | partially rescued | effectively halted OPC entry | decreased | additionally rescued CS56 spot degradation |  | 
GRKKRRQRRRCIREDDSLMLYALAQEKKESNMHES [SISP, scrambled ISP control peptide, reference compound] |  |  |  |  | not significantly changed | equally low amounts
